Assay results published in patent US20200181104A1, “SSAO INHIBITORS AND USES THEREOF” (METACRINE, INC., priority 2018, published 2020).
pIC50: −log10 of the molar value.

biological target: T1, Recombinant Human SSAO/VAP-1/AOC3 (Homo sapiens, UniProt Q16853); assay: Human Semicarbazide-Sensitive Amine Oxidase (SSAO) Assay; assay type: biochemical; settings: recombinant enzyme, 30 minutes preincubation at 37° C., benzylamine substrate, Amplex Ultra Red/HRP fluorescence
T1 construct: purchased R&D systems 3957-AO
T1 sequence (Q16853 1-763): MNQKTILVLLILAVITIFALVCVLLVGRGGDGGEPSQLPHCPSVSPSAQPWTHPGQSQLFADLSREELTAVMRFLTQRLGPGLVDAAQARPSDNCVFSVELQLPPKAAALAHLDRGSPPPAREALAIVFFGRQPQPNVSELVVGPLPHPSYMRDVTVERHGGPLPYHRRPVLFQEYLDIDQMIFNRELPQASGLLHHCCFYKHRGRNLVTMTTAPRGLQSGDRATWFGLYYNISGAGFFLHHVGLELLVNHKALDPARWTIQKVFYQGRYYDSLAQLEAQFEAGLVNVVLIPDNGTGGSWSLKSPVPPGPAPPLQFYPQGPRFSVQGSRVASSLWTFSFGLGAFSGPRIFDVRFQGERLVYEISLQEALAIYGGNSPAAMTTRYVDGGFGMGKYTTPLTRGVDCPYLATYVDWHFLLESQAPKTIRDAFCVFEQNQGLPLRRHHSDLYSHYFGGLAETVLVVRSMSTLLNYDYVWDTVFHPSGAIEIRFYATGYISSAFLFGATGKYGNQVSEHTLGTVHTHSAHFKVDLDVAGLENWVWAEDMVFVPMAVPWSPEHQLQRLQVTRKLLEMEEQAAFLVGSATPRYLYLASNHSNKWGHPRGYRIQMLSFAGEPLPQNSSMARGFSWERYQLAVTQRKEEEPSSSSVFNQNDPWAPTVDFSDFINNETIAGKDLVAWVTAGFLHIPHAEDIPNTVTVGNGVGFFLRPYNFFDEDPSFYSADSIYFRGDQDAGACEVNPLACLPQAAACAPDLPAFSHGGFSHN
Summary of the method: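 IC50 from kinetic Amplex Ultra Red/HRP fluorescence (ex 544, em 590 nm, 30-120 min) after benzylamine addition. Beforehand, 6-10 compound dilutions were preincubated 30 min at 37 °C with recombinant human SSAO in 50 mM HEPES (enzyme working concentration 2.5 μg/ml).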

Structure (SMILES)	pIC50
NC/C(=C\F)COc1ccc(C23CCC(C(=O)N4CC(O)(C5CC5)C4)(CC2)CC3)cc1 [Compound 2.99, (E)-(4-(4-((2-(aminomethyl)-3-fluoroallyl)oxy)phenyl)bicyclo [2.2.2]octan-1-yl)(3-cyclopropyl-3-hydroxyazetidin-1-yl)methanone]	≥ 8.00
CC(C)(C#N)CNC(=O)C12CCC(c3ccc(OC/C(=C/F)CN)cc3)(CC1)CC2 [Compound 2.103, (E)-4-(4-((2-(aminomethyl)-3-fluoroallyl)oxy)phenyl)-N-(2-cyano-2-methylpropyl)bicyclo[2.2.2] octane-1-carboxamide]	≥ 8.00
CC1(C)CC(NC(=O)C23CCC(c4ccc(OC/C(=C/F)CN)cc4)(CC2)CC3)CC(C)(C)O1 [Compound 2.105, (E)-4-(4-((2-(aminomethyl)-3-fluoroallyl)oxy)phenyl)-N-(2,2,6,6-tetramethyltetrahydro-2H-pyran-4-yl)bicyclo[2.2.2]octane-1-carboxamide]	≥ 8.00
NC/C(=C\F)COc1ccc(C23CCC(C(=O)NC4CCC5(CC4)COC5)(CC2)CC3)cc1 [Compound 2.106, (E)-4-(4-((2-(aminomethyl)-3-fluoroallyl)oxy)phenyl)-N-(2-oxaspiro[3.5]nonan-7-yl)bicyclo[2.2.2]octane-1-carboxamide]	≥ 8.00
NC/C(=C\F)COc1ccc(C23CCC(C(=O)NCCOC4CCOCC4)(CC2)CC3)cc1 [Compound 2.107]	≥ 8.00
CC(C)(NC(=O)C12CCC(c3ccc(OC/C(=C/F)CN)cc3)(CC1)CC2)C1CCOCC1 [Compound 2.108, (E)-4-(4-((2-(aminomethyl)-3-fluoroallyl)oxy)phenyl)-N-(2-(tetrahydro-2H-pyran-4-yl)propan-2-yl)bicyclo[2.2.2]octane-1-carboxamide]	≥ 8.00
NC/C(=C\F)COc1ccc(C23CCC(C(=O)NCC(F)(F)F)(CC2)CC3)cc1 [Compound 2.109, (E)-4-(4-((2-(aminomethyl)-3-fluoroallyl)oxy)phenyl)-N-(2,2,2-trifluoroethyl)bicyclo [2.2.2]octane-1-carboxamide]	≥ 8.00
CO[C@H]1CCCN(C(=O)C23CCC(c4ccc(OC/C(=C/F)CN)cc4)(CC2)CC3)C1 [Compound 2.110, (S,E)-(4-(4-((2-(aminomethyl)-3-fluoroallyl)oxy)phenyl)bicyclo [2.2.2]octan-1-yl)(3-methoxypiperidin-1-yl)methanone]	≥ 8.00
CO[C@@H]1CCCN(C(=O)C23CCC(c4ccc(OC/C(=C/F)CN)cc4)(CC2)CC3)C1 [Compound 2.111, (R,E)-(4-(4-((2-(aminomethyl)-3-fluoroallyl)oxy)phenyl)bicyclo [2.2.2]octan-1-yl)(3-methoxypiperidin-1-yl)methanone]	≥ 8.00
NC/C(=C\F)COc1ccc(C23CCC(C(=O)NC4CCN(CC(F)(F)F)CC4)(CC2)CC3)cc1 [Compound 2.112, (E)-4-(4-((2-(aminomethyl)-3-fluoroallyl)oxy)phenyl)-N-(1-(2,2,2-trifluoroethyl)piperidin-4-yl)bicyclo[2.2.2]octane-1-carboxamide]	≥ 8.00
NC/C(=C\F)COc1ccc(C23CCC(C(=O)NC4CC5(CCOCC5)C4)(CC2)CC3)cc1 [Compound 2.114, (E)-4-(4-((2-(aminomethyl)-3-fluoroallyl)oxy)phenyl)-N-(7-oxaspiro[3.5]nonan-2-yl)bicyclo[2.2.2]octane-1-carboxamide]	≥ 8.00
NC/C(=C\F)COc1ccc(C23CCC(C(=O)NC4CCN(c5ccccn5)CC4)(CC2)CC3)cc1 [Compound 2.117, (E)-4-(4-((2-(aminomethyl)-3-fluoroallyl)oxy)phenyl)-N-(1-(pyridin-2-yl)piperidin-4-yl)bicyclo[2.2.2]octane-1-carboxamide]	≥ 8.00
COc1ccc(CNC(=O)C23CCC(c4ccc(OC/C(=C/F)CN)cc4)(CC2)CC3)cc1 [Compound 2.118, (E)-4-(4-((2-(aminomethyl)-3-fluoroallyl)oxy)phenyl)-N-(4-methoxybenzyl)bicyclo[2.2.2] octane-1-carboxamide]	≥ 8.00
COc1cccc(CCNC(=O)C23CCC(c4ccc(OC/C(=C/F)CN)cc4)(CC2)CC3)c1 [Compound 2.119, (E)-4-(4-((2-(aminomethyl)-3-fluoroallyl)oxy)phenyl)-N-(3-methoxyphenethyl)bicyclo [2.2.2]octane-1-carboxamide]	≥ 8.00
NC/C(=C\F)COc1ccc(C23CCC(C(=O)NCCOC4CCC4)(CC2)CC3)cc1 [Compound 2.120, (E)-4-(4-((2-(aminomethyl)-3-fluoroallyl)oxy)phenyl)-N-(2-cyclobutoxyethyl)bicyclo [2.2.2]octane-1-carboxamide]	≥ 8.00
CO[C@H]1CCN(C(=O)C23CCC(c4ccc(OC/C(=C/F)CN)cc4)(CC2)CC3)C1 [Compound 2.121, (S,E)-(4-(4-((2-(aminomethyl)-3-fluoroallyl)oxy)phenyl)bicyclo [2.2.2]octan-1-yl)(3-methoxypyrrolidin-1-yl)methanone]	≥ 8.00
NC/C(=C\F)COc1ccc(C23CCC(C(=O)Nc4ccncn4)(CC2)CC3)cc1 [Compound 2.122, (E)-4-(4-((2-(aminomethyl)-3-fluoroallyl)oxy)phenyl)-N-(pyrimidin-4-yl)bicyclo[2.2.2]octane-1-carboxamide]	≥ 8.00

Results, then the molecule that gave them:

pIC50	Structure (SMILES)
≥ 8.00	COC(C)(C)CNC(=O)C12CCC(c3ccc(OC/C(=C/F)CN)cc3)(CC1)CC2 [Compound 2.97, (E)-4-(4-((2-(aminomethyl)-3-fluoroallyl)oxy)phenyl)-N-(2-methoxy-2-methylpropyl)bicyclo[2.2.2] octane-1-carboxamide]
≥ 8.00	COC1(CNC(=O)C23CCC(c4ccc(OC/C(=C/F)CN)cc4)(CC2)CC3)CCOCC1 [Compound 2.98, (E)-4-(4-((2-(aminomethyl)-3-fluoroallyl)oxy)phenyl)-N-((4-methoxytetrahydro-2H-pyran-4-yl)methyl)bicyclo[2.2.2]octane-1-carboxamide]
≥ 8.00	NC/C(=C\F)COc1ccc(C23CCC(C(=O)NCC4(O)CCCC4)(CC2)CC3)cc1 [Compound 2.100, (E)-4-(4-((2-(aminomethyl)-3-fluoroallyl)oxy)phenyl)-N-((1-hydroxycyclopentyl)methyl) bicyclo[2.2.2]octane-1-carboxamide]
≥ 8.00	NC/C(=C\F)COc1ccc(C23CCC(C(=O)NCC4(O)CCCCC4)(CC2)CC3)cc1 [Compound 2.101, (E)-4-(4-((2-(aminomethyl)-3-fluoroallyl)oxy)phenyl)-N-((1-hydroxycyclohexyl)methyl) bicyclo[2.2.2]octane-1-carboxamide]
7.00 to 8.00	COC1(CNC(=O)C23CCC(c4ccc(OC/C(=C/F)CN)cc4)(CC2)CC3)CCCCC1 [Compound 2.102, (E)-4-(4-((2-(aminomethyl)-3-fluoroallyl)oxy)phenyl)-N-((1-methoxycyclohexyl)methyl) bicyclo[2.2.2]octane-1-carboxamide]
≥ 8.00	NC/C(=C\F)COc1ccc(C23CCC(C(=O)NCC(F)F)(CC2)CC3)cc1 [Compound 2.113, (E)-4-(4-((2-(aminomethyl)-3-fluoroallyl)oxy)phenyl)-N-(2,2-difluoroethyl)bicyclo[2.2.2] octane-1-carboxamide]
≥ 8.00	CO[C@H]1CCC[C@@H](NC(=O)C23CCC(c4ccc(OC/C(=C/F)CN)cc4)(CC2)CC3)C1 [Compound 2.116, 4-(4-(((E)-2-(aminomethyl)-3-fluoroallyl)oxy)phenyl)-N-((1R,3S)-3-methoxycyclohexyl)bicyclo [2.2.2]octane-1-carboxamide]
≥ 8.00	CO[C@H](C)CNC(=O)C12CCC(c3ccc(OC/C(=C/F)CN)cc3)(CC1)CC2 [Compound 2.123, (R,E)-4-(4-((2-(aminomethyl)-3-3-fluoroallyl)oxy)phenyl)-N-(2-methoxypropyl)bicyclo[2.2.2] octane-1-carboxamide]
≥ 8.00	COC[C@H]1C[C@@H](NC(=O)C23CCC(c4ccc(OC/C(=C/F)CN)cc4)(CC2)CC3)C1 [Compound 2.124, 4-(4-(((E)-2-(aminomethyl)-3-fluoroallyl)oxy)phenyl)-N-((1s,3s)-3-(methoxymethyl)cyclobutyl) bicyclo[2.2.2]octane-1-carboxamide]
≥ 8.00	CO[C@@H](C)CNC(=O)C12CCC(c3ccc(OC/C(=C/F)CN)cc3)(CC1)CC2 [Compound 2.125, (S,E)-4-(4-((2-(aminomethyl)-3-3-fluoroallyl)oxy)phenyl)-N-(2-methoxypropyl)bicyclo[2.2.2] octane-1-carboxamide]
≥ 8.00	COC[C@H]1C[C@H](NC(=O)C23CCC(c4ccc(OC/C(=C/F)CN)cc4)(CC2)CC3)C1 [Compound 2.126, 4-(4-(((E)-2-(aminomethyl)-3-fluoroallyl)oxy)phenyl)-N-((1r,3r)-3-(methoxymethyl)cyclobutyl) bicyclo[2.2.2]octane-1-carboxamide]
